Results taken from US11000033B2, “Ketone or oxime compound, and herbicide” (NISSAN CHEMICAL CORPORATION, priority 2014, dated 2021).

Legend:
Type in all cases: in vivo
Abutilon theophrasti = assay: Test Example 5: herbicidal effect by foliage application, plastic box (symbol M); details: 320 g/ha, 3 weeks after application
Summary of the method: (§1)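 Greenhouse foliar test: seedlings at 14 days, grown 25° C. to 30° C. in sterilized diluvial soil; compound applied as an aqueous dilution of an emulsion; response read 3 weeks after spraying.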

Digitaria ciliaris = assay: Test Example 5: herbicidal effect by foliage application, plastic box (symbol F); details: 320 g/ha, 3 weeks after application
Summary of the method: as §1

Amaranthus retroflexus = assay: Test Example 4: herbicidal effect by soil treatment (symbol N); details: application herbicide amount 320 g/ha
Summary of the method: (§2)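 Seeds were sown in sterilized diluvial soil, covered with about 1.5 cm of soil, and the soil surface was sprayed with a water-diluted emulsion of the compound at a predetermined rate. Plants grew in a greenhouse at 25° C. to 30° C.; effects were scored visually 3 weeks after application.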

[1] = tested on: Echinochloa crus-galli var. crus-galli; assay: Test Example 5: herbicidal effect by foliage application, plastic box (symbol H); details: 320 g/ha, 3 weeks after application
Summary of the method: as §1

rapeseed = assay: Test Example 5: effect on crop by foliage application, plastic box (symbol g); details: 320 g/ha, 3 weeks after application
Summary of the method: (§3)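 Diluvial soil, sterilized and boxed (21 × 13 × 7 cm), received spot-sown seed covered by about 1.5 cm soil; plants were then greenhouse-grown at 25–30° C.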

Avena fatua [2] = assay: Test Example 5: herbicidal effect by foliage application, plastic box (symbol I); details: 320 g/ha, 3 weeks after application
Summary of the method: as §1

soybean = assay: Test Example 4: effect on crop by soil treatment (symbol d); details: application herbicide amount 320 g/ha
Summary of the method: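 Crop seed is sown in spots together with several weed species in a box of sterilized diluvial soil. It is covered by about 1.5 cm of soil and kept in a greenhouse held between 25° C. and 30° C.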

Stellaria media = assay: Test Example 5: herbicidal effect by foliage application, plastic box (symbol P); details: 320 g/ha, 3 weeks after application
Summary of the method: as §1

Galium spurium [3] = assay: Test Example 5: herbicidal effect by foliage application, plastic box (symbol Q); details: 320 g/ha, 3 weeks after application
Summary of the method: as §1

Scirpus juncoides = assay: Test Example 1: herbicidal activity, application before weed generation in submerged conditions (symbol B); details: application herbicide amount 320 g/ha
Summary of the method: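 Application before weed emergence: an aqueous dilution of the emulsion formulation was poured onto the surface of 4 cm-deep floodwater on the day of sowing. Effect was judged after 3 weeks (greenhouse, 25–30 °C).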

Chenopodium album = assay: Test Example 5: herbicidal effect by foliage application, plastic box (symbol O); details: 320 g/ha, 3 weeks after application
Summary of the method: as §1

Setaria viridis = assay: Test Example 4: herbicidal effect by soil treatment (symbol G); details: application herbicide amount 320 g/ha
Summary of the method: as §2

Galium spurium [4] = assay: Test Example 4: herbicidal effect by soil treatment (symbol Q); details: application herbicide amount 320 g/ha
Summary of the method: as §2

beet = assay: Test Example 5: effect on crop by foliage application, plastic box (symbol f); details: 320 g/ha, 3 weeks after application
Summary of the method: as §3

Avena fatua [5] = assay: Test Example 4: herbicidal effect by soil treatment (symbol I); details: application herbicide amount 320 g/ha
Summary of the method: as §2

Veronica persica = assay: Test Example 5: herbicidal effect by foliage application, plastic box (symbol R); details: 320 g/ha, 3 weeks after application
Summary of the method: as §1

Leptochloa chinensis = assay: Test Example 3: herbicidal effect by foliage application, Wagner pot (symbol D); details: application herbicide amount 320 g/ha
Summary of the method: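 Rating at 3 weeks post-spray, by defined criteria. Treatment: emulsion diluted with water to a predetermined amount, applied evenly to foliage of 14-day-old plants raised in alluvial soil flooded 0.1–0.5 cm deep at 25–30 °C, rice co-sown.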

Apera spica-venti = assay: Test Example 5: herbicidal effect by foliage application, plastic box (symbol L); details: 320 g/ha, 3 weeks after application
Summary of the method: as §1

For `CON=C(C)CC1CC(O)=C(c2c(C)cc(-c3ccc(F)c(Cl)c3)cc2C)C1=O` (stereo not drawn) [6-085], the “M: Abutilon theophrasti, herbicidal effect (criteria of Test Example 1)” value (“M: Abutilon theophrasti” for short) (Abutilon theophrasti) was 4 (Herbicidal ratio of 70% or higher and lower than 90%), the “F: Digitaria ciliaris, herbicidal effect (criteria of Test Example 1)” value (shortened to “F: Digitaria ciliaris, herbicidal effect”) (Digitaria ciliaris) was 5 (Herbicidal ratio of 90% or more (almost completely withered)) and the “Herbicidal effect grade, N: Amaranthus retroflexus” value (from here on “Herbicidal effect grade, N”) (Amaranthus retroflexus) was 5 (Herbicidal ratio of 90% or more (almost completely withered)). For the same molecule, the “H: Echinochloa crus-galli var. crus-galli, herbicidal effect (criteria of Test Example 1)” value [1] was 5 (Herbicidal ratio of 90% or more (almost completely withered)), the “g: rapeseed, effect on crop (criteria of Test Example 1)” value (shortened to “g: rapeseed, effect on crop”) (rapeseed) was 5 (Herbicidal ratio of 90% or more (almost completely withered)) and the “I: Avena fatua, herbicidal effect (criteria of Test Example 1)” value (Avena fatua [2]) was 5 (Herbicidal ratio of 90% or more (almost completely withered)). For the same molecule, the “Effect on crop grade, d: soybean” value (soybean) was 5 (Herbicidal ratio of 90% or more (almost completely withered)), the “P: Stellaria media, herbicidal effect (criteria of Test Example 1)” value (“P: Stellaria media, herbicidal effect” for short) (Stellaria media) was 3 (Herbicidal ratio of 40% or higher and lower than 70%) and the “Q: Galium spurium, herbicidal effect (criteria of Test Example 1)” value (Galium spurium [3]) was 4 (Herbicidal ratio of 70% or higher and lower than 90%). The “Herbicidal effect grade, B: Scirpus juncoides” value (from here on “Herbicidal effect grade, B”) (Scirpus juncoides) was 3 (Herbicidal ratio of 40% or higher and lower than 70%), the “O: Chenopodium album, herbicidal effect (criteria of Test Example 1)” value (“O: Chenopodium album, herbicidal effect” for short) (Chenopodium album) was 5 (Herbicidal ratio of 90% or more (almost completely withered)) and the “Herbicidal effect grade, G: Setaria viridis” value (“Herbicidal effect grade, G” below) (Setaria viridis) was 5 (Herbicidal ratio of 90% or more (almost completely withered)). For the same molecule, the “Herbicidal effect grade, Q: Galium spurium” value (“Herbicidal effect grade, Q” below) (Galium spurium [4]) was 4 (Herbicidal ratio of 70% or higher and lower than 90%), the “f: beet, effect on crop (criteria of Test Example 1)” value (from here on “f: beet, effect on crop”) (beet) was 4 (Herbicidal ratio of 70% or higher and lower than 90%) and the “Herbicidal effect grade, I: Avena fatua” value (Avena fatua [5]) was 5 (Herbicidal ratio of 90% or more (almost completely withered)). For the same molecule, the “R: Veronica persica, herbicidal effect (criteria of Test Example 1)” value (“R: Veronica persica, herbicidal effect” below) (Veronica persica) was 4 (Herbicidal ratio of 70% or higher and lower than 90%), the “herbicidal effect on D (Leptochloa chinensis), grade 0-5” value (from here on “herbicidal effect on D”) (Leptochloa chinensis) was 5 (Herbicidal ratio of 90% or more (almost completely withered)) and the “L: Apera spica-venti, herbicidal effect (criteria of Test Example 1)” value (“L: Apera spica-venti, herbicidal effect” below) (Apera spica-venti) was 5 (Herbicidal ratio of 90% or more (almost completely withered)).

`CON=C(C)CC1CC(OC(=O)N2CCOCC2)=C(c2c(C)cc(-c3ccc(F)c(Cl)c3)cc2C)C1=O` (stereo not drawn) [6-093] was tested, and the “M: Abutilon theophrasti” value (Abutilon theophrasti) was 3 (Herbicidal ratio of 40% or higher and lower than 70%), the “F: Digitaria ciliaris, herbicidal effect” value (Digitaria ciliaris) was 5 (Herbicidal ratio of 90% or more (almost completely withered)) and the “Herbicidal effect grade, N” value (Amaranthus retroflexus) was 0 (Herbicidal ratio of 5% or lower (almost no effect)). The “H: Echinochloa crus-galli var. crus-galli, herbicidal effect (criteria of Test Example 1)” value [1] was 5 (Herbicidal ratio of 90% or more (almost completely withered)), the “g: rapeseed, effect on crop” value (rapeseed) was 4 (Herbicidal ratio of 70% or higher and lower than 90%) and the “I: Avena fatua, herbicidal effect (criteria of Test Example 1)” value (Avena fatua [2]) was 5 (Herbicidal ratio of 90% or more (almost completely withered)). For the same molecule, the “Effect on crop grade, d: soybean” value (soybean) was 0 (Herbicidal ratio of 5% or lower (almost no effect)), the “P: Stellaria media, herbicidal effect” value (Stellaria media) was 4 (Herbicidal ratio of 70% or higher and lower than 90%) and the “Q: Galium spurium, herbicidal effect (criteria of Test Example 1)” value (Galium spurium [3]) was 5 (Herbicidal ratio of 90% or more (almost completely withered)). For the same molecule, the “Herbicidal effect grade, B” value (Scirpus juncoides) was 5 (Herbicidal ratio of 90% or more (almost completely withered)), the “O: Chenopodium album, herbicidal effect” value (Chenopodium album) was 5 (Herbicidal ratio of 90% or more (almost completely withered)) and the “Herbicidal effect grade, G” value (Setaria viridis) was 5 (Herbicidal ratio of 90% or more (almost completely withered)). For the same molecule, the “Herbicidal effect grade, Q” value (Galium spurium [4]) was 0 (Herbicidal ratio of 5% or lower (almost no effect)), the “f: beet, effect on crop” value (beet) was 3 (Herbicidal ratio of 40% or higher and lower than 70%) and the “Herbicidal effect grade, I: Avena fatua” value (Avena fatua [5]) was 0 (Herbicidal ratio of 5% or lower (almost no effect)). For the same molecule, the “R: Veronica persica, herbicidal effect” value (Veronica persica) was 5 (Herbicidal ratio of 90% or more (almost completely withered)), the “herbicidal effect on D” value (Leptochloa chinensis) was 5 (Herbicidal ratio of 90% or more (almost completely withered)) and the “L: Apera spica-venti, herbicidal effect” value (Apera spica-venti) was 5 (Herbicidal ratio of 90% or more (almost completely withered)).

With `CON=C(C)CC1CC(O)=C(c2c(C)cc(-c3ccc(Cl)cc3F)cc2C)C1=O` (stereo not drawn) [6-084] the “M: Abutilon theophrasti” value (Abutilon theophrasti) was 3 (Herbicidal ratio of 40% or higher and lower than 70%), the “F: Digitaria ciliaris, herbicidal effect” value (Digitaria ciliaris) was 5 (Herbicidal ratio of 90% or more (almost completely withered)) and the “N: Amaranthus retroflexus, herbicidal effect grade” value (Amaranthus retroflexus) was 4 (Herbicidal ratio of 70% or higher and lower than 90%). For the same molecule, the “H: Echinochloa crus-galli var. crus-galli, herbicidal effect (criteria of Test Example 1)” value [1] was 5 (Herbicidal ratio of 90% or more (almost completely withered)), the “g: rapeseed, effect on crop” value (rapeseed) was 4 (Herbicidal ratio of 70% or higher and lower than 90%) and the “I: Avena fatua, herbicidal effect (criteria of Test Example 1)” value (Avena fatua [2]) was 5 (Herbicidal ratio of 90% or more (almost completely withered)). For the same molecule, the “d: soybean, effect on crop grade” value (soybean) was 5 (Herbicidal ratio of 90% or more (almost completely withered)), the “P: Stellaria media, herbicidal effect” value (Stellaria media) was 3 (Herbicidal ratio of 40% or higher and lower than 70%) and the “Q: Galium spurium, herbicidal effect (criteria of Test Example 1)” value (Galium spurium [3]) was 3 (Herbicidal ratio of 40% or higher and lower than 70%). For the same molecule, the “Herbicidal effect grade, B” value (Scirpus juncoides) was 3 (Herbicidal ratio of 40% or higher and lower than 70%), the “O: Chenopodium album, herbicidal effect” value (Chenopodium album) was 4 (Herbicidal ratio of 70% or higher and lower than 90%) and the “G: Setaria viridis, herbicidal effect grade” value (Setaria viridis) was 5 (Herbicidal ratio of 90% or more (almost completely withered)). The “Q: Galium spurium, herbicidal effect grade” value (Galium spurium [4]) was 3 (Herbicidal ratio of 40% or higher and lower than 70%), the “f: beet, effect on crop” value (beet) was 0 (Herbicidal ratio of 5% or lower (almost no effect)) and the “I: Avena fatua, herbicidal effect grade” value (Avena fatua [5]) was 5 (Herbicidal ratio of 90% or more (almost completely withered)). The “R: Veronica persica, herbicidal effect” value (Veronica persica) was 4 (Herbicidal ratio of 70% or higher and lower than 90%), the “herbicidal effect on D” value (Leptochloa chinensis) was 5 (Herbicidal ratio of 90% or more (almost completely withered)) and the “L: Apera spica-venti, herbicidal effect” value (Apera spica-venti) was 5 (Herbicidal ratio of 90% or more (almost completely withered)).

`CON=C(C)CC1CC(O)=C(c2c(C)cccc2C)C1=O` (stereo not drawn) [6-112] was tested, and the “M: Abutilon theophrasti” value (Abutilon theophrasti) was 4 (Herbicidal ratio of 70% or higher and lower than 90%), the “F: Digitaria ciliaris, herbicidal effect” value (Digitaria ciliaris) was 5 (Herbicidal ratio of 90% or more (almost completely withered)) and the “Herbicidal effect grade, N” value (Amaranthus retroflexus) was 1 (Herbicidal ratio of 5% or higher and lower than 20%). The “H: Echinochloa crus-galli var. crus-galli, herbicidal effect (criteria of Test Example 1)” value [1] was 5 (Herbicidal ratio of 90% or more (almost completely withered)), the “g: rapeseed, effect on crop” value (rapeseed) was 4 (Herbicidal ratio of 70% or higher and lower than 90%) and the “I: Avena fatua, herbicidal effect (criteria of Test Example 1)” value (Avena fatua [2]) was 5 (Herbicidal ratio of 90% or more (almost completely withered)). For the same molecule, the “Effect on crop grade, d: soybean” value (soybean) was 0 (Herbicidal ratio of 5% or lower (almost no effect)), the “P: Stellaria media, herbicidal effect” value (Stellaria media) was 1 (Herbicidal ratio of 5% or higher and lower than 20%) and the “Q: Galium spurium, herbicidal effect (criteria of Test Example 1)” value (Galium spurium [3]) was 0 (Herbicidal ratio of 5% or lower (almost no effect)). For the same molecule, the “Herbicidal effect grade, B” value (Scirpus juncoides) was 0 (Herbicidal ratio of 5% or lower (almost no effect)), the “O: Chenopodium album, herbicidal effect” value (Chenopodium album) was 0 (Herbicidal ratio of 5% or lower (almost no effect)) and the “Herbicidal effect grade, G” value (Setaria viridis) was 5 (Herbicidal ratio of 90% or more (almost completely withered)). For the same molecule, the “Herbicidal effect grade, Q” value (Galium spurium [4]) was 0 (Herbicidal ratio of 5% or lower (almost no effect)), the “f: beet, effect on crop” value (beet) was 0 (Herbicidal ratio of 5% or lower (almost no effect)) and the “Herbicidal effect grade, I: Avena fatua” value (Avena fatua [5]) was 1 (Herbicidal ratio of 5% or higher and lower than 20%). The “R: Veronica persica, herbicidal effect” value (Veronica persica) was 1 (Herbicidal ratio of 5% or higher and lower than 20%), the “herbicidal effect on D” value (Leptochloa chinensis) was 5 (Herbicidal ratio of 90% or more (almost completely withered)) and the “L: Apera spica-venti, herbicidal effect” value (Apera spica-venti) was 5 (Herbicidal ratio of 90% or more (almost completely withered)).
